Species on record: Rattus norvegicus
Test: Open TG-GATES - Regimen: Single
Type: toxicity, organism-based, Sprague-Dawley
Parameters: regimen Single, gender Male, age 6 weeks
Details: in vivo, po, 30 mg/kg, route gavage, dose level Low; for APTT / Bas / Eos / Fbg / Hb / Ht / Lym / MCH / MCHC / MCV / Mono / Neu / PT / Plat / RBC / Ret / WBC: tissue Blood; for KIDNEY_L / KIDNEY_R / KIDNEY_TOTAL: tissue Kidney; for LIVER: tissue Liver; for A/G / ALP / ALT / AST / BUN / CRE / Ca / Cl / DBIL / GLC / IP / K / LDH / Na / PL / RALB / TBIL / TC / TG / TP / gamma-GTP: tissue Plasma

Question: How did the TERMINAL_BW (9 h) turn out when `Cc1cccc(Nc2ccccc2C(=O)O)c1C` [MEFENAMIC ACID] was run?
Answer: 211.9 g

Question: And the APTT (9 h)?
Answer: 18.5 s

Question: And the Bas (9 h)?
Answer: 0%

Question: And the Eos (9 h)?
Answer: 1%

Question: And the Fbg (9 h)?
Answer: 214.2 mg/dL

Question: What about the Hb (9 h) of the same compound?
Answer: 13.3 g/dL

Question: And the Ht (9 h)?
Answer: 37.1%

Question: And the Lym (9 h)?
Answer: 79.8%

Question: And the MCH (9 h)?
Answer: 21.4 pg

Question: And the MCHC (9 h)?
Answer: 35.7%

Question: And the MCV (9 h)?
Answer: 60 fL

Question: What about the Mono (9 h) of the same compound?
Answer: 3%

Question: And the Neu (9 h)?
Answer: 14.6%

Question: And the PT (9 h)?
Answer: 12.9 s

Question: And the Plat (9 h)?
Answer: 120.5 x10_4/uL

Question: And the RBC (9 h)?
Answer: 621.4 x10_4/ul

Question: What about the Ret (9 h) of the same compound?
Answer: 7.2%

Question: What about the WBC (9 h) of the same compound?
Answer: 68.9 x10_2/uL

Question: And the KIDNEY_L (9 h)?
Answer: 0.9 g

Question: And the KIDNEY_R (9 h)?
Answer: 1 g

Question: And the KIDNEY_TOTAL (9 h)?
Answer: 1.9 g

Question: What about the LIVER (9 h) of the same compound?
Answer: 8.5 g

Question: What about the A/G (9 h) of the same compound?
Answer: 1.6

Question: And the ALP (9 h)?
Answer: 921.4 IU/L

Question: What about the ALT (9 h) of the same compound?
Answer: 30.2 IU/L

Question: And the AST (9 h)?
Answer: 62 IU/L

Question: And the BUN (9 h)?
Answer: 10.8 mg/dL

Question: And the CRE (9 h)?
Answer: 0.3 mg/dL

Question: What about the Ca (9 h) of the same compound?
Answer: 10.5 mg/dL

Question: What about the Cl (9 h) of the same compound?
Answer: 102.4 meq/L

Question: What about the DBIL (9 h) of the same compound?
Answer: 0.066 mg/dL

Question: What about the GLC (9 h) of the same compound?
Answer: 192.6 mg/dL

Question: What about the IP (9 h) of the same compound?
Answer: 9.1 mg/dL

Question: What about the K (9 h) of the same compound?
Answer: 3.8 meq/L

Question: What about the LDH (9 h) of the same compound?
Answer: 164.8 IU/L

Question: What about the Na (9 h) of the same compound?
Answer: 139.8 meq/L

Question: What about the PL (9 h) of the same compound?
Answer: 140.2 mg/dL

Question: And the RALB (9 h)?
Answer: 3.3 g/dL

Question: What about the TBIL (9 h) of the same compound?
Answer: 0.1 mg/dL

Question: And the TC (9 h)?
Answer: 79 mg/dL

Question: And the TG (9 h)?
Answer: 42.8 mg/dL

Question: And the TP (9 h)?
Answer: 5.3 g/dL

Question: What about the gamma-GTP (9 h) of the same compound?
Answer: 1 IU/L

Question: What about the TERMINAL_BW (24 h) of the same compound?
Answer: 227.6 g

Question: What about the APTT (24 h) of the same compound?
Answer: 18.2 s

Question: And the Bas (24 h)?
Answer: 0%

Question: What about the Eos (24 h) of the same compound?
Answer: 1%

Question: And the Fbg (24 h)?
Answer: 227.4 mg/dL

Question: And the Hb (24 h)?
Answer: 13.4 g/dL

Question: And the Ht (24 h)?
Answer: 38.5%

Question: What about the Lym (24 h) of the same compound?
Answer: 76.2%

Question: What about the MCH (24 h) of the same compound?
Answer: 22.3 pg

Question: And the MCHC (24 h)?
Answer: 34.9%

Question: And the MCV (24 h)?
Answer: 63.9 fL

Question: And the Mono (24 h)?
Answer: 3.4%

Question: And the Neu (24 h)?
Answer: 17.2%

Question: And the PT (24 h)?
Answer: 11.9 s

Question: What about the Plat (24 h) of the same compound?
Answer: 117.8 x10_4/uL

Question: What about the RBC (24 h) of the same compound?
Answer: 604 x10_4/ul

Question: What about the Ret (24 h) of the same compound?
Answer: 6.7%

Question: And the WBC (24 h)?
Answer: 93.5 x10_2/uL

Question: What about the KIDNEY_L (24 h) of the same compound?
Answer: 1 g

Question: And the KIDNEY_R (24 h)?
Answer: 1 g

Question: What about the KIDNEY_TOTAL (24 h) of the same compound?
Answer: 2 g

Question: And the LIVER (24 h)?
Answer: 10.7 g

Question: And the A/G (24 h)?
Answer: 1.5

Question: And the ALP (24 h)?
Answer: 1061.2 IU/L

Question: What about the ALT (24 h) of the same compound?
Answer: 42.2 IU/L

Question: What about the AST (24 h) of the same compound?
Answer: 71 IU/L

Question: And the BUN (24 h)?
Answer: 15 mg/dL

Question: And the CRE (24 h)?
Answer: 0.4 mg/dL

Question: What about the Ca (24 h) of the same compound?
Answer: 10.8 mg/dL

Question: And the Cl (24 h)?
Answer: 102.8 meq/L

Question: And the DBIL (24 h)?
Answer: 0.096 mg/dL

Question: What about the GLC (24 h) of the same compound?
Answer: 205.4 mg/dL

Question: What about the IP (24 h) of the same compound?
Answer: 7.6 mg/dL

Question: What about the K (24 h) of the same compound?
Answer: 4.2 meq/L

Question: And the LDH (24 h)?
Answer: 198 IU/L

Question: What about the Na (24 h) of the same compound?
Answer: 139.6 meq/L

Question: What about the PL (24 h) of the same compound?
Answer: 161 mg/dL

Question: And the RALB (24 h)?
Answer: 3.5 g/dL

Question: What about the TBIL (24 h) of the same compound?
Answer: 0.2 mg/dL

Question: What about the TC (24 h) of the same compound?
Answer: 80.8 mg/dL

Question: What about the TG (24 h) of the same compound?
Answer: 116.2 mg/dL

Question: And the TP (24 h)?
Answer: 5.7 g/dL

Question: And the gamma-GTP (24 h)?
Answer: 1.4 IU/L
